Laboratory results from patent US4145444A, “Anti-inflammatory agent of benzoyl derivative” (priority 1977, dated 1979).
Where two headings read alike, the source gives them in different places.

What was measured:
hind paws of male rats = assay: Anti-inflammatory effect: acute carragheenin edema method; type: in vivo; settings: Rattus norvegicus, read-out: Anti-inf.: edema inhibition rate
Procedure: The edema was induced by subcutaneous injection of 1% carragheenin suspension in saline to the hind paws of male rats weighting 150 to 180 g. Each sample was orally given at the dosage of 100 mg/kg just before the inoculation of carragheenin.

platelet = assay: Blood platelet aggregation inhibiting effect (collagen-induced); type: cell-based, rabbits; settings: Oryctolagus cuniculus, Platelet; 10^-4 mole, collagen inducer, rabbit PRP; read-out: Blood platelet agg. inh.: percentage inhibition of platelet aggregation
From the text: Male rabbits (Japan original white strain 3.3 to 3.6 kg) were anesthetized with Thiopental sodium and blood was sampled from the carotid artery.

thrombus = assay: Inhibiting effect on thrombosis (by-pass between left juglar vein and right carotid artery, silk thread); type: in vivo, SD type male rates; settings: Rattus norvegicus; 100 mg/kg oral, 5 hours before first blood circulation, rats; read-out: Thrombosis inh.: thrombosis inhibition rate
Procedure: The inhibiting effects of the samples of the invention on thrombosis were tested by the following test method.
A 0.5 ml of 50 μ/ml of the heparin physiological saline was added through the polyethylene tube before the first blood circulation. After the blood circulation for 15 minutes, the circulation was stopped in the middle of the tubing at artery side with a pinch cock.
Then, 0.2 ml of the heparin physiological saline was added to remove the blood coagulates on the tubing wall and another new polyethylene tubing filled with the heparin solution and containing a piece of new silk thread was attached between the venous and artery tubing ends.
The blood circulation was reestablished by opening the pinch cock. After 15 minutes, the wet weight of thrombus on the silk thread was similarly measured.
In the same manner, the third circulation was performed and wet weight of thrombus measured.
The amount of thrombus was given by the equation A. [formula] Each sample was suspended in an aqueous solution of sodium carboxymethyl cellulose and the oral dose of the suspension (100 mg/kg) was performed at 5 hours before the first blood circulation.
The amount of thrombus after the oral dose of the sample was calculated in the same manner as that of control circulations.
The thrombosis inhibition rate was given by the equation B. [formula]

male mice = assay: Analgesic effect: painful stretchings following intraperitoneal 0.7% acetic acid; settings: Mus musculus, po, read-out: Analgesic: percentage diminition of times of painful stretching
Procedure: Each sample was orally administered in the dosage of 100 mg/kg before injection of acetic acid.

[1] = 100 mg/kg oral, carragheenin edema, male rats (Table 2)

| SMILES | inhibition in vivo at 100 mg/kg (hind paws of male rats; [1]) [%] | inhibition at 100 µM (platelet) [%] | inhibition in vivo at 100 mg/kg (thrombus) [%] | inhibition in vivo at 100 mg/kg (male mice) [%] | inhibition in vivo at 100 mg/kg (hind paws of male rats; po) [%] |
| --- | --- | --- | --- | --- | --- |
| CCCCCCOc1ccc(C(=O)Cc2ccc(Cl)cc2)cc1 [compound 62] | 12.5 | 12.3 | 7.8 | 10.2 |  |
| CCCc1ccc(C(=O)c2ccc(Cl)cc2)cc1 [compound 63] | 11.8 | 15.6 | 6.2 | 8.2 |  |
| CCCCc1ccc(C(=O)c2ccc(Cl)cc2)cc1 [compound 64] | 21.4 | 28.5 | 15.9 | 6.6 |  |
| Cc1ccc(C(=O)c2ccccc2)cc1 [compound 65] | 17.3 | 21 | 19.2 | 10.9 |  |
| CCc1ccc(C(=O)c2ccccc2)cc1 [compound 66] | 34.4 | 20.7 | 20.5 | 15.7 |  |
| CC(C)Cc1ccc(C(=O)c2ccccc2)cc1 [compound 67] | 20 | 18.5 | 17.3 | 19.1 |  |
| CCCCCCCCCCc1ccc(C(=O)c2ccccc2)cc1 [compound 68] | 17.6 | 16.5 | 20.3 | 5.8 |  |
| CCCCCCCCCCCCc1ccc(C(=O)c2ccccc2)cc1 [compound 69] | 12 | 13.5 | 12.7 | 6.7 |  |
| CCCCCCCCCc1ccc(C(=O)c2ccccc2)cc1 [compound 70] | 23.2 | 17.2 | 10 | 7 |  |
| CCCCCCCCCCCc1ccc(C(=O)c2ccccc2)cc1 [compound 71] | 20 | 19.5 | 11.4 | 9.2 |  |
| Cc1ccc(C(=O)c2ccccc2)cc1C [compound 72] | 29.9 | 28.7 | 30.2 | 23.4 |  |
| COc1ccc(C(=O)c2ccccc2)c(OC)c1 [compound 74] | 30.2 | 18.5 | 28.9 | 24.2 |  |
| COc1ccc(OC)c(C(=O)c2ccccc2)c1 [compound 75] | 29.5 | 30.7 | 29.2 | 22 |  |
| COc1cc(OC)c(C(=O)c2ccccc2)c(OC)c1 [compound 76] | 15.7 | 16.2 | 18.4 | 13.9 |  |
| CCCCc1ccc(CCCC)c(C(=O)c2ccccc2)c1 [compound 77] | 13.2 | 25.1 | 17.5 | 10.8 |  |
| Cc1cc(C)c(C)c(C(=O)c2ccccc2)c1C [compound 78] | 12.5 | 19.9 | 20.2 | 5.4 |  |
| Cc1cc(C)c(C(=O)c2ccccc2)c(C)c1C [compound 79] | 33.2 | 26.8 | 31.5 | 20.8 |  |
| CCc1ccc(CC)c(C(=O)c2ccccc2)c1 [compound 80] | 31.9 | 30.3 | 28.5 | 16.2 |  |
| CCOc1ccc(C(=O)c2ccccc2)cc1 [compound 81] | 15.3 | 18.3 | 20.3 | 17.6 |  |
| C=Cc1ccc(C(=O)c2ccccc2)cc1 [compound 82] | 23.8 | 20.5 | 30.1 | 13.5 |  |
| Cc1ccc(C(=O)c2ccc(C)cc2)cc1 [compound 83] | 20 | 27.6 | 19.3 | 12.1 |  |

| SMILES | inhibition in vivo at 100 mg/kg (hind paws of male rats; [1]) [%] | inhibition at 100 µM (platelet) [%] | inhibition in vivo at 100 mg/kg (thrombus) [%] | inhibition in vivo at 100 mg/kg (male mice) [%] | inhibition in vivo at 100 mg/kg (hind paws of male rats; po) [%] |
| --- | --- | --- | --- | --- | --- |
| CCCCCc1ccc(C(=O)c2ccc(C)cc2)cc1 [compound 84] | 28.4 | 8.6 | 16 | 15.3 |  |
| CCCCCCCc1ccc(C(=O)c2ccc(C)cc2)cc1 [compound 85] |  | 18.7 | 16.2 | 10.2 | 18.7 |
| Cc1ccc(C(=O)c2c(C)cc(C)cc2C)cc1 [compound 86] | 17.7 | 28.3 | 35.6 | 8.3 |  |
| CCCc1ccc(C(=O)c2cccc(C)c2)cc1 [compound 87] | 18.7 | 30.1 | 25.8 | 11.2 |  |
| CCCCc1ccc(C(=O)c2cccc(C)c2)cc1 [compound 88] | 21.6 | 24.5 | 29.3 | 5.6 |  |
| CCCCCc1ccc(C(=O)c2cccc(C)c2)cc1 [compound 89] | 27.6 | 22.6 | 13.2 | 4.3 |  |
| CCCc1ccc(C(=O)c2ccccc2C)cc1 [compound 90] | 19.7 | 10.8 | 15 | 13.7 |  |
| Cc1ccccc1C(=O)c1c(C)c(C)cc(C)c1C [compound 91] | 21.4 | 14.7 | 31 | 15.2 |  |
| CCCc1ccc(C(=O)c2ccc(OC)cc2)cc1 [compound 93] | 20.4 | 24.4 | 26.8 | 14.7 |  |
| CCCCOc1ccc(C(=O)c2c(C)cc(C)cc2C)cc1 [compound 94] | 26.6 | 27.9 | 37.4 | 15.8 |  |
| CCCCOc1ccc(C(=O)c2ccc(CCCC)cc2)cc1 [compound 95] | 17.1 | 30 | 32.3 | 14.5 |  |
| CCCc1ccc(C(=O)c2ccc(C)cc2C)cc1 [compound 96] | 26.1 | 28.5 | 36.7 | 18.9 |  |
| CCCc1ccc(C(=O)c2c(C)cc(C)cc2C)cc1 [compound 97] | 13 | 26.8 | 37.3 | 14.7 |  |
| CCCCc1ccc(C(=O)c2ccc(CCC)cc2)cc1 [compound 98] | 31.9 | 28.3 | 35.4 | 16.4 |  |
| CCCCCc1ccc(C(=O)c2ccc(CCC)cc2)cc1 [compound 99] | 34.1 | 29.5 | 30.3 | 15.5 |  |
| CCCCCCCc1ccc(C(=O)c2ccc(CCCC)cc2)cc1 [compound 100] | 14 | 22.4 | 27.6 | 10 |  |
| CCCCCCCCc1ccc(C(=O)c2ccc(CCCC)cc2)cc1 [compound 101] | 23.1 | 27.9 | 31.4 | 18.3 |  |
| CCCCCCCCCc1ccc(C(=O)c2ccc(CCCC)cc2)cc1 [compound 102] | 22.4 | 30.4 | 29.7 | 15.2 |  |
| CCCCCCc1ccc(C(=O)c2c(C)cc(C)cc2C)cc1 [compound 103] | 29.7 | 29.5 | 35.8 | 14.2 |  |
| CCCc1ccc(C(=O)c2ccc(O)cc2)cc1 [compound 104] | 27.4 | 25.3 | 30.5 | 13.2 |  |
| CCCCCc1ccc(C(=O)c2ccc(O)cc2)cc1 [compound 105] | 33.6 | 24.1 | 31.4 | 14.1 |  |
